Test results published in paper PMC9820316, “Novel Arylpiperazine Derivatives of Salicylamide with α1-Adrenolytic Properties Showed Antiarrhythmic and Hypotensive Properties in Rats” (International Journal of Molecular Sciences, 2022).

Experiments:
[1] = tested on: pressor response to methoxamine in rats; assay: Influence on blood vasopressor response to methoxamine in rats; format: in vivo, rat; details: methoxamine 150 μg/kg before and 5 min after compound
Method: The experiment was performed to establish the effect of the studied derivatives on the pressor response to methoxamine (150 µg/kg, iv), according to the methods described previously. Normotensive Wistar rats were anesthetized with thiopental (75 mg/kg ip). The right carotid artery was cannulated with a polyethylene tube filled with heparin solution using a Datamax apparatus (Columbus Instruments, Columbus, OH, USA). After a 15-min stabilization period, the pressor response to methoxamine before (control) and 5 min after the administration of the tested compounds was measured (Figure 4B). The tested compounds were administered at the lowest hypotensive dose.

[2] = target: α1-adrenergic receptors; assay: α1-adrenoceptor radioligand binding assay ([3H]-prazosin, rat cortex); details: rat cortex tissue, mean ± SEM
Method: The α1- and α2-adrenoceptor radioligand binding assays were performed on the rat cerebral cortex using previously described methods. […] The brains were homogenized using the ULTRA-TURRAX homogenizer in 10 mL of an ice-cold 50 mM Tris-HCl buffer (pH 7.6). The homogenates were centrifuged at 20,000× g for 20 min (0–4 °C). Subsequently, the cell pellet was resuspended in the Tris–HCl buffer and centrifuged again. Radioligand binding assays were carried out in plates (MultiScreen/Millipore). The final incubation mixture, with a volume of 300 μL, consisted of 240 μL of the tissue suspension, 30 μL of the radioligand solution, and 30 μL of the buffer containing 7–8 concentrations of the studied compounds. In order to measure the unspecific binding, 10 μM phentolamine (for [^3H]-prazosin) or 10 μM clonidine (for [^3H]-clonidine) were utilized. The incubation was completed by rapid filtration through Whatman GF/C filters using a vacuum manifold (Millipore). The filters were then washed twice with the assay buffer and placed in scintillation vials with a liquid scintillation cocktail. Radioactivity was measured in a WALLAC 1409 DSA liquid scintillation counter (Perkin Elmer, USA). All the assays were performed in duplicates, and the inhibitory constants (Ki) were calculated.

| SMILES | attenuation of the methoxamine pressor response ([1]; 1 mg/kg iv) [%] | Adrenergic Receptors—pKi α1 [2] | attenuation of the methoxamine pressor response ([1]; 2.5 mg/kg iv) [%] | attenuation of the methoxamine pressor response ([1]; 5 mg/kg iv) [%] |
| --- | --- | --- | --- | --- |
| Cl.NC(=O)c1ccccc1OCCCCN1CCN(c2cccc(Cl)c2)CC1 [JJGW01, 2-{4-[4-(3-chlorophenyl)piperazin-1-ylo]butoxy}benzamide hydrochloride] | 81 | 8.40 ± 0.01 | – | – |
| Cl.NC(=O)c1ccccc1OCCCCCN1CCN(c2cccc(Cl)c2)CC1 [JJGW02, 2-{5-[4-(3-chlorophenyl)piperazin-1-ylo]pentoxy}benzamide hydrochloride] | – | 8.33 ± 0.02 | 100 | – |
| Cl.NC(=O)c1ccccc1OCCCCCCN1CCN(c2cccc(Cl)c2)CC1 [JJGW03, 2-{6-[4-(3-chlorophenyl)piperazin-1-ylo]hexoxy}benzamide hydrochloride] | – | 8.11 ± 0.01 | – | 99 |
| COc1ccccc1N1CCN(Cc2cccc(COc3ccccc3C(N)=O)c2)CC1.Cl [JJGW11, 2-[(3-{[4-(2-metoxyphenyl)piperazin-1-ylo]methyl}phenyl)metoxy}benzamide hydrochloride] | – | 8.07 ± 0.04 | 99 | – |
| COc1ccccc1N1CCN(Cc2ccc(COc3ccccc3C(N)=O)cc2)CC1.Cl [JJGW12, 2-[(4-{[4-(2-metoxyphenyl)piperazin-1-ylo]methyl}phenyl)metoxy}benzamide hydrochloride] | – | 7.41 ± 0.01 | – | 97 |
